From paper PMC11612208, “A novel small molecule Enpp1 inhibitor improves tumor control following radiation therapy by targeting stromal Enpp1 expression” (Scientific Reports, 2024)

How the values were obtained:
[1] = biological target: T1, HepG2 cells that express ENPP1 on their surface (Homo sapiens, UniProt P22413); experiment: Cellular inhibition of cGAMP hydrolysis on HepG2 cells (cGAMP ELISA); assay type: cell-based; conditions: 100 ng/mL 2'3'-cGAMP, overnight (20 h), read-out: EC50, protection of spiked-in cGAMP from hydrolysis
T1 construct: HepG2 cells that express ENPP1 on their surface; host or cells: HepG2
T1 sequence (P22413 1-925): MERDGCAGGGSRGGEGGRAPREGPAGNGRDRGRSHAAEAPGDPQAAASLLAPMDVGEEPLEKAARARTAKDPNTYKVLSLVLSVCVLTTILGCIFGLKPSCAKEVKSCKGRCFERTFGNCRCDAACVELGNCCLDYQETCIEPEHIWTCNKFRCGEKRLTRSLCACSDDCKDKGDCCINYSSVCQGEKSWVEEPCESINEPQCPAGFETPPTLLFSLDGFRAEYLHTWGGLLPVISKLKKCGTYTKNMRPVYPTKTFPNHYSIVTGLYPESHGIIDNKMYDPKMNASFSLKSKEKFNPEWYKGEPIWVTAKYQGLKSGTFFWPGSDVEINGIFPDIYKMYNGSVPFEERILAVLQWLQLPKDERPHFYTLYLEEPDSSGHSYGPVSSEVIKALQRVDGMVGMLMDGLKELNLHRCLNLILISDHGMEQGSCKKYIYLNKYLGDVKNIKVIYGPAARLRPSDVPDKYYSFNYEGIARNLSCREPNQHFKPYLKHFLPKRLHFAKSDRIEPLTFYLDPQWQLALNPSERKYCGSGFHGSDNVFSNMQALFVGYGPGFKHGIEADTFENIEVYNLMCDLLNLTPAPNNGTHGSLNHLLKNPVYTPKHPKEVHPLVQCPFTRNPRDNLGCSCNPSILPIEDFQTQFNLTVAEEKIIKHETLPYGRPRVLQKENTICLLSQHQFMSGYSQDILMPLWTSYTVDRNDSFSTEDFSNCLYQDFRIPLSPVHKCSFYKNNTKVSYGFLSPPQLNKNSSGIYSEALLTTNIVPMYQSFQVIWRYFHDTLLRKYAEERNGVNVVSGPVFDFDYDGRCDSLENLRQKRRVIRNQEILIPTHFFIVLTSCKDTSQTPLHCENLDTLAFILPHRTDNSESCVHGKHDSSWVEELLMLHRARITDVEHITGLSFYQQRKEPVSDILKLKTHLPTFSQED
Description: (§1) Enzymatic inhibition assays were performed by incubating 1.5 nM ENPP1 (R&D Systems cat# 6136-EN-010) with serial dilutions of Vir-3 for 15 minutes at 37 °C in buffer (50mM Tris pH 8.0, 250mM NaCl, 0.5mM CaCl2, 1uM ZnCl2, 1% DMSO) before adding 20 uM 2’3’-cGAMP (Invivogen cat.# tlrl-nacga23). The reaction was incubated for 30 min at 37 °C prior to assessing the generated AMP using the AMP-Glo assay (Promega cat.# V5012). Cellular inhibition of cGAMP hydrolysis was performed using HepG2 cells pre-incubated with serial dilutions of Vir-3 in DMEM + 10% Charcoal stripped FBS for 30 min at 37 °C with 5% CO2. 100 ng/mL of 2’3’-cGAMP was then added to the cells and incubated for 20 h at 37 °C with 5% CO2. Media was then removed and the remaining cGAMP was quantified using a 2’3’-cGAMP ELISA kit (Cayman Chemical cat.# 501700).

[2] = In vivo pharmacokinetics, IV and PO; conditions: mouse
Description: For pharmacokinetic analysis, female C57BL6 mice were dosed with Vir-3 by either IV administration or oral gavage or IV administration either once or daily for 5 days. 3 mice were used per time point with staggered groups to cover all times. Blood was collected at 0.25, 0.5, 1, 3-, 5-, 8- and 24-hours post-dose into heparinized tubes. Plasma was prepared from each sample and protein precipitated prior to LC-MS/MS injection. Levels of Vir-3 were quantitated, and data was analyzed using Certara’s Phoenix Winnonlin.

MC38 tumors = experiment: MC38 tumor model, VIR3 oral gavage +/- 12 Gy focal RT, survival; assay type: in vivo, mouse
Description: (§2) Tumors were implanted subcutaneously into the right flank as follows: C57BL/6 2 × 10^5 MC38; BALB/c 2 × 10^5 CT26. When tumors were approximately 5 mm in average diameter at approximately 10–14 days following implantation, mice were randomized to receive treatment with CT-guided radiation using the Small Animal Radiation Research Platform (SARRP) from XStrahl. Dosimetry was performed using Murislice software from XStrahl. The SARRP delivered a single dose of 12 Gy to an isocenter within the tumor using a 10 mm x 10 mm collimator and a 45° beam angle to minimize dose delivery to normal tissues. The Enpp1 inhibitor VIR3 was delivered through oral gavage starting 1 day prior to RT daily for 21 days. Tumors were measured using calipers in two directions and reported as mean tumor diameter. Survival curves were based on an endpoint of tumor diameter of greater than 12 mm in any direction.
To deplete CD8 T cells, 200 µg of depleting anti-CD8b (53 − 5.8, BioXCell, West Lebanon, NH) were administered intraperitoneally. This administration took place one day before the first dose of Vir3, followed by two additional anti-CD8b administrations at 7-day intervals.

CT26 tumors = experiment: CT26 tumor model in BALB/c mice, VIR3 oral gavage +/- 12 Gy focal RT, survival; assay type: in vivo, mouse; conditions: daily oral gavage for 21 days
Description: as §2

[3] = tested on: cDC1 and cDC2 in MC38 tumors; experiment: Flow cytometry of myeloid infiltration in MC38 tumors; assay type: in vivo, mouse; conditions: 4 days following radiation time point (d18)
Description: Analysis of tumor infiltrating myeloid cells was performed as previously described. Briefly, following dissection, tumors were weighed and minced into small fragments, then transferred into C tubes from Miltenyi Biotec containing enzyme digest mix with 250U/mL collagenase IV (Worthington Biochemical, #LS004188), 30U/mL DNase I (Millipore-Sigma, #4536282001), 5mM CaCl2, 5% heat inactivated FBS and HBSS. Tissue was dissociated using a GentleMACS tissue dissociator from Miltenyi Biotech. This was followed by incubation at 37 °C for 30 min with agitation. Enzymatic reactions were quenched using ice cold RPMI containing 10% FBS and 2mM EDTA. Single cell suspensions were then filtered through 100 μm (tumor) or 40 μm (dLN) nylon cell strainers to remove macroscopic debris. Cells were washed and counted for staining. 2 × 10^6 cells were stained with Zombie Aqua Viability Dye from BioLegend (#423102) in PBS for 10 min on ice, then Fc receptors were blocked with anti-CD16/CD32 antibodies from BD Biosciences (2.4G2) for an additional 10 min. After centrifugation, the supernatant was removed and cell were stained with a surface antibody cocktail containing in FACS buffer (PBS, 2mM EDTA, 2% FBS) and Brilliant Stain Buffer Plus from BD Biosciences (#566385) for 20 min on ice. […] Data were analyzed using FlowJo software from Tree Star, v10.7. […]

MC38 and CT26 tumors = experiment: RNASeq of tumors 4 days following radiation treatment; assay type: in vivo, mouse; conditions: VIR3 treatment
Description: Mice were implanted with tumors and randomized to treatment with 12 Gy RT and VIR3 as above. 4d following RT, the tumors were harvested, debulked and immediately flash frozen by rapid immersion in liquid nitrogen. Frozen tumors were crushed, treated with 500 µl of RNAlater, then frozen at -80 °C. To extract RNA, the samples were thawed on ice, and 500 µl of buffer RLT (QIAGEN Cat. No. 79219) was added and samples were homogenized. Following centrifugation, RNA was isolated using a QIAGEN RNeasy Plus Mini Kit (Cat No. 74134), according to the manufacturer’s instructions. Quality was checked on nanodrop (ND-1000) and the quantity of RNA was determined on Qubit 4 flourometer. To prepare for sequencing, samples were processed using an Illumnia TruSeq® Stranded mRNA Library Prep kit with Illumina TruSeq RNA Single Indexes Set A and Set B barcoding kits. An Illumnia NovaSeq 6000 S1 Reagent Kit v1.5 was used to make RNA libraries along with a NovaSeq XP 2-Lane Kit v1.5. RNA libraries were sequenced on NovaSeq 6000.
Demultiplexed fastq files for all samples were first processed with FastQC for general quality control. All the samples in the sequencing run passed read level QC with at least 17 million reads per sample. Average read depth across all samples were 51 million reads. Raw illumina BCL data was demultiplexed using Illumina bcl2fastq2 v2.20. Gene expression counts were quantified using salmon-v.1.1.0 [76] for all samples sequenced. Differential gene expression analysis was performed using the R software package edgeR[77]. Differential gene expression analysis was performed on all groups of Tumor+/-Drug+/-RT combinations. Gene set enrichment analysis was performed using GSEA v4.3.2 Preranked method[78],[79]. The following genesets; c3.all.v2023.2.Hs.symbols.gmt, c5.all.v2023.2.Hs.symbols.gmt, c7.all.v2023.2.Hs.symbols.gmt from Molecular Signatures Database (gsea-msigdb.org) were used for enrichment analysis.

[4] = Toxicity observation in treated mice; assay type: in vivo; conditions: mice treated with oral VIR3
Enpp1 [5] = biological target: T2, Enpp1 (Homo sapiens, UniProt P22413); experiment: Selectivity and specificity for Enpp1 (statement); conditions: additional studies necessary to confirm in vivo
T2 sequence (P22413 1-925): T1 sequence (P22413 1-925)

Enpp1 [6] = biological target: T2, Enpp1; experiment: Enzymatic inhibition of recombinant ENPP1 cGAMP hydrolysis (AMP-Glo); assay type: biochemical; design: purchased R&D Systems 6136-EN-010; conditions: recombinant ENPP1 1.5 nM, 20 uM 2'3'-cGAMP; value is the lower threshold of the assay
Description: as §1

Structure (SMILES): COc1ccc2c(Nc3ccc(S(=N)(=O)NCC(C)O)cc3)ccnc2c1 (centres unmarked) [VIR3]
- EC50 [1]: 6.7 nM
- Cmax, total ([2]; P.O. 60 mg/kg): 795 ng/mL
- oral bioavailability (in words) ([2]; comparing IV and PO routes): low
- half-life ([2]; female, C57BL6, plasma, iv, I.V. 1 mg/kg): 2900 min
- clearance ([2]; female, C57BL6, plasma, iv, I.V. 1 mg/kg, approximate given extrapolation from a portion of AUCinf): ~27.7 mL/min/kg
- Vd ([2]; female, C57BL6, plasma, iv, I.V. 1 mg/kg, read-out: Vss): 52.5 L/kg
- bioavailability ([2]; female, C57BL6, plasma, oral, P.O. 60 mg/kg vs I.V. 1 mg/kg): 5.7%
- half-life ([2]; female, C57BL6, plasma, po, P.O. 60 mg/kg): 1460 min
- AUC(0-t) ([2]; female, C57BL6, plasma, po, P.O. 60 mg/kg, read-out: AUC0-last, total): 1420 ng·h/mL
- response to radiation therapy (survival), VIR3 + RT (MC38 tumors; MC38 tumors in C57BL/6 mice, daily oral gavage for 21 days, 12 Gy on second day of dosing): significantly improved the response to radiation therapy
- tumor growth, VIR3 alone (MC38 tumors; MC38 tumors in C57BL/6 mice, daily oral gavage for 21 days, no RT): did not impact tumor growth alone
- response to RT + VIR3 with loss of IFNAR1 in host cells (MC38 tumors; MC38 tumors in IFNAR1-/- mice): completely abrogated all responses to treatment
- tumor control by RT + VIR3 with loss of STING in host cells (MC38 tumors; MC38 tumors in STING-/- mice, no statistically significant difference in survival by logrank test): fewer mice cured
- tumor control by RT + VIR3 with CD8 depletion (MC38 tumors; MC38 tumors, wt mice, anti-CD8 given): abrogated tumor control
- response to radiation therapy (survival), VIR3 + RT (CT26 tumors; 12 Gy on day 14): significantly improved the response to radiation therapy
- tumor growth, VIR3 alone (CT26 tumors; no RT): did not impact tumor growth alone
- dendritic cells (cDC1, cDC2) in tumor, VIR3 alone [3]: can cause DC loss
- Cdkn1a and Ccl2 gene expression in tumor (MC38 and CT26 tumors; CT26 and MC38 tumors): not impacted
- Tsc33d3 gene expression in tumor (MC38 and CT26 tumors; both CT26 and MC38 tumors): upregulated
- Wee1 gene expression in tumor (MC38 and CT26 tumors; untreated and irradiated CT26 and MC38 tumors, FDR correction): significantly regulated
- toxicity [4]: toxicity was not observed
- selectivity and specificity for Enpp1 (Enpp1 [5]): high selectivity and specificity
- IC50 (Enpp1 [6]): < 0.75 nM
